Experimental data taken from US20260265184A1, “DEGRADABLE CROSSLINKING AGENT” (NAGASE CHEMTEX CORPORATION, priority 2023, published 2026).

Legend:
Assay type in all cases: physicochemical
[1] = Solvent solubility evaluation of the degradable cross-linking agents; conditions: for Solvent solubility, Isopropanol / Solvent solubility, Methanol / Solvent solubility, Methylisobutyl ketone / Solvent solubility, N-methylpyrrolidone / Solvent solubility, Propylene glycol monomethyl ether: 0.5 mL solvent added to 2 mg, visual, room temperature, then heat gun; for Solvent solubility, overall assessment in words: summary over the solvents of Tables 1 and 2
Text: The degree of dissolution was visually observed. When an undissolved portion remained at room temperature, the mixture was sufficiently heated with a heat gun and then visually observed again. The scoring was as follows: 3 points for those that completely dissolved at room temperature; 2 points for those in which an undissolved portion remained at room temperature but completely dissolved after heating; 1 point for those in which a slight amount of an undissolved portion remained after heating; and 0 points for those in which a large amount of an undissolved portion remained after heating. Here, the degradable cross-linking agents in liquid form were evaluated for compatibility with the solvents.

[2] = Degradation of the compound on adding sodium hypochlorite aqueous solution; conditions: 3% sodium hypochlorite aqueous solution added to the compound
[3] = Solubility of the degradable cross-linked product (cured film) in water / organic solvent
Description: The solution was applied onto a glass substrate to give a cured film thickness of 0.1 μm, and then dried and cured at 150° C. for 10 minutes to obtain a degradable cross-linked product.

[4] = Degradation of the degradable cross-linked product on immersion in oxidizing agent solution
Description: The method for degrading a degradable cross-linked product according to the present invention includes bringing the degradable cross-linked product into contact with an aqueous solution containing an oxidizing agent at 100° C. or lower.
The conditions for bringing the degradable cross-linked product into contact with the aqueous solution containing the oxidizing agent include a temperature of 100° C. or lower, preferably of 15° C. to 50° C. The conditions preferably include a duration of 60 minutes or shorter, more preferably 10 minutes or shorter. If necessary, the cross-linked product may be shaken or stirred during the reaction with the oxidizing agent. Non-limiting specific examples of the method for bringing the degradable cross-linked product into contact with the aqueous solution containing the oxidizing agent include immersing the degradable cross-linked product in the aqueous solution containing the oxidizing agent, or spraying or adding dropwise the aqueous solution containing the oxidizing agent onto the degradable cross-linked product.
An amount of 0.3 g of the compound of formula (A), 0.1 g of poly(methylhydrosiloxane), and 4.0 mg of a platinum catalyst (trade name: CAT-PL-50T, available from Shin-Etsu Chemical Co., Ltd.) were added to 40 g of dimethyl sulfoxide to obtain a thermosetting composition solution. The solution was applied onto a glass substrate to give a cured film thickness of 0.1 μm, and then dried and cured at 150° C. for 10 minutes to obtain a degradable cross-linked product.

[5] = cured film immersed in 3% sodium hypochlorite aqueous solution

| SMILES | Solvent solubility, Isopropanol [1] | Solvent solubility, Methanol [1] | Solvent solubility, Methylisobutyl ketone [1] | Solvent solubility, N-methylpyrrolidone [1] | Solvent solubility, Propylene glycol monomethyl ether [1] | Solvent solubility, overall assessment in words [1] | Solubility of the degradable cross-linked product made with the compound ([3]; in water) | Solubility of the degradable cross-linked product made with the compound ([3]; in isopropanol and water) | Solubility of the degradable cross-linked product made with the compound ([3]; in THF and water) | Degradation of the compound by oxidizing agent [2] | Degradation of the degradable cross-linked product made with the compound [4, 5] | Solvent solubility, overall assessment in words ([1]; listed as Example 8) | Degradation of the degradable cross-linked product made with the compound ([4]; cured film immersed in 2-fold dilution of a 3% sodium hypochlorite aqueous solution with isopropanol) | Solvent solubility, overall assessment in words ([1]; listed as Example 9) | Degradation of the degradable cross-linked product made with the compound ([4]; cured film immersed in 3-fold dilution of a 3% sodium hypochlorite aqueous solution with THE) |
| --- | --- | --- | --- | --- | --- | --- | --- | --- | --- | --- | --- | --- | --- | --- | --- |
| C=CCCC(=O)NNC(=O)CCCCCCCCC(=O)NNC(=O)OCC=C [Formula (A), reference compound] | 0 | 0 | 0 | 0 | 0 | poorly soluble in all the solvents | insoluble |  |  | foaming and degradation of the compound were observed | foaming and removal of the product from the substrate were observed |  |  |  |  |
| C=CCNC(=O)NNC(=O)CCCCCCCCC(=O)NNC(=O)NCC=C [Formula (B)] | 1 | 2 | 0 | 3 | 0 |  | insoluble |  |  | foaming and degradation of the compound were observed | foaming and removal of the product from the substrate were observed |  |  |  |  |
| C=CCOC(=O)NNC(=O)NCCCCCCNC(=O)NNC(=O)OCC=C [Formula (C)] | 1 | 2 | 0 | 3 | 2 |  | insoluble |  |  | foaming and degradation of the compound were observed | foaming and removal of the product from the substrate were observed |  |  |  |  |
| C=CCOC(=O)NNC(=O)CCCCCCCCC(=O)NNC(=O)OCC=C [Formula (D)] | 3 | 3 | 2 | 3 | 3 |  | insoluble |  |  | foaming and degradation of the compound were observed | foaming and removal of the product from the substrate were observed |  |  |  |  |
| C=CCOC(=O)NNC(=O)CCCO [Formula (G)] | 3 | 3 | 2 | 3 | 3 |  | insoluble |  |  | foaming and degradation of the compound were observed | foaming and removal of the product from the substrate were observed |  |  |  |  |

Further lines, with some results ahead:

| Solvent solubility, Isopropanol [1] | Solvent solubility, Methanol [1] | Solvent solubility, Methylisobutyl ketone [1] | Solvent solubility, N-methylpyrrolidone [1] | Solvent solubility, Propylene glycol monomethyl ether [1] | Solvent solubility, overall assessment in words [1] | Solubility of the degradable cross-linked product made with the compound ([3]; in water) | Solubility of the degradable cross-linked product made with the compound ([3]; in isopropanol and water) | Solubility of the degradable cross-linked product made with the compound ([3]; in THF and water) | SMILES | Degradation of the compound by oxidizing agent [2] | Degradation of the degradable cross-linked product made with the compound [4, 5] | Solvent solubility, overall assessment in words ([1]; listed as Example 8) | Degradation of the degradable cross-linked product made with the compound ([4]; cured film immersed in 2-fold dilution of a 3% sodium hypochlorite aqueous solution with isopropanol) | Solvent solubility, overall assessment in words ([1]; listed as Example 9) | Degradation of the degradable cross-linked product made with the compound ([4]; cured film immersed in 3-fold dilution of a 3% sodium hypochlorite aqueous solution with THE) |
| --- | --- | --- | --- | --- | --- | --- | --- | --- | --- | --- | --- | --- | --- | --- | --- |
| 0 | 3 | 0 | 3 | 0 |  |  | insoluble |  | C=C(C)C(=O)OCCNC(=O)NNC(=O)c1cc(O)cc(O)c1 [Formula (I)] | foaming and degradation of the compound were observed |  | slightly less soluble than the compound of Example 3 but exhibited an acceptable level of solubility | foaming and removal of the product from the substrate were observed |  |  |
| 1 | 1 | 0 | 1 | 0 |  | insoluble |  |  | O=C(CCS)NNC(=O)NCCCCCCNC(=O)N(CCCCCCNC(=O)NNC(=O)CCS)C(=O)NCCCCCCNC(=O)NNC(=O)CCS [Formula (J)] | foaming and degradation of the compound were observed | foaming and removal of the product from the substrate were observed |  |  | slightly less soluble than the compound of Example 3 but exhibited an acceptable level of solubility |  |
| 1 | 2 | 1 | 3 | 3 |  | insoluble |  |  | C=CCOC(=O)NNC(=O)CCC(NC(=O)NNC(=O)CCCC(=O)NNC(=O)NC(CCC(=O)NNC(=O)OCC=C)C(=O)NNC(=O)OCC=C)C(=O)NNC(=O)OCC=C (stereo not drawn) [Formula (L)] | foaming and degradation of the compound were observed | foaming and removal of the product from the substrate were observed |  |  |  |  |
| 0 | 3 | 0 | 3 | 3 |  |  |  | insoluble | O=C(CCCCCOC(=O)NNC(=O)OCCO)NNC(=O)c1cccc(C(=O)NNC(=O)CCCCCOC(=O)NNC(=O)OCCO)c1 [Formula (M)] | foaming and degradation of the compound were observed |  |  |  |  | foaming and removal of the product from the substrate were observed |
